Reference: patent EP0813872A1, “Berberine derivates for inhibiting hsp27 production” (Kureha Chemical Industry Co., Ltd., priority 1996, dated 1997)
Counter-ions that a name gives are not always drawn.

Test system: HSP27
Test: Inhibition of HSP27 production in heat-shocked human cancer cell lines (Western blotting)
Assay type: cell-based
Details: Western blot, 20 µM, control showed a single band
Experimental: The following various human cancer cell lines were cultured under 5% CO2, at 37 °C, except for the heat shock treatment period. The lung cancer cell line H69 (ATCC HTB 119), the gastric cancer cell line KATO III (ATCC HTB 103), the colon cancer cell line COLO 205 (ATCC CCL 222), and the prostate cancer cell line DU145 (ATCC HTB 81) were cultured in an RPMI1640 medium containing 10% inactivated fetal bovine serum (hereinafter referred to as FBS).
The uterine cancer cell line HeLa S3 (ATCC CCL 2.2) was cultured in an MEM medium containing 10% inactivated FBS.
The neuroblastoma cell line SK-N-MC (ATCC HTB 10) was cultured in an MEM medium containing non-essential amino acids (L-alanine = 8.9 mg/l, L-asparagine·H2O = 15.0 mg/l, L-aspartic acid = 13.3 mg/l, L-glutamic acid = 14.7 mg/l, glycine = 7.5 mg/l, L-proline = 11.5 mg/l and L-serine = 10.5 mg/l) and 10% inactivated FBS.
The berberine hydrochloride of the formula (III) (the final concentration = 20 µM: Matsuura Yakugyo) was added to each medium of the above human cancer cell lines 2 days after the inoculation. After the berberine hydrochloride treatment for 24 hours, a heat shock was applied at 45 °C for 15 minutes, and the cells were then cultured at 37 °C overnight. The control tests were carried out by performing the above procedures except that the berberine hydrochloride was not added.
The cells treated in the above (2) were homogenized, and the amounts of HSP27 produced were measured by the Western blotting method.
The cells treated in the above (2) were washed with phosphate buffered physiological saline [composition: KC1 = 0.2 g/l, KH2PO4 = 0.2 g/l, NaCl = 8 g/1, Na2HPO4 (anhydrous) = 1.15 g/l: hereinafter referred to as PBS(-): COSMO BIO CO. Catalogue No. 320-01], and 1 ml of lysis buffer [1.0% NP-40, 0.15 M sodium chloride, 50 mM Tris-HCl (pH 8.0), 5 mM-EDTA, 2 mM-N-ethylmaleimide, 2 mM phenylmethylsulfonyl fluoride, 2 µg/ml leupeptin, and 2 µg/ml pepstatin] was added. The whole was allowed to stand for 20 minutes on ice, and then centrifuged at 4 °C and 12000 rpm for 20 minutes. The resulting supernatant (10 µl) was added to 790 µl of PBS(-), and then 200 µl of a protein assay dye reagent solution (Dye Reagent Concentrate: Bio-Rad Laboratories, Catalogue No. 500-0006) was added. The whole was allowed to stand at room temperature for 5 minutes, and the absorbance at 595 nm was measured to determine the amounts of proteins.
For the SDS-polyacrylamide gel electrophoresis (SDS-PAGE) of the samples, the protein concentration of which were measured, aliquots containing the same amount of protein were loaded onto the gel. The SDS-PAGE was performed according to the Laemmli method (Laemmli, […]). After the electrophoresis, the blotting and then blocking were carried out. More particularly, the gel was brought into contact with a 0.45 µm nitrocellulose membrane (Schleicher & Schuell, Catalogue No. 401196) at room temperature and 100 V, using a protein-transferring apparatus (Trans-Blot Electrophoretic Transfer Cell: Bio-Rad), and blotting was carried out for 3 hours. The blotting buffer used was prepared by adding methyl alcohol to Tris-glycine buffer (pH 8.5) consisting of 0.025 M Tris and 0.192 M glycine (Tris Gly Running and Blotting Buffer; Enprotech, Mass., USA; Catalogue No. SA100034), so that the concentration of methyl alcohol became 20%. After blotting, the nitrocellulose membrane was incubated in a 10% skimmed milk-PBS(-) solution at room temperature for 30 minutes, to block non-specific bindings.
After blocking, the first antibody reaction was carried out on the nitrocellulose membrane, using a screener blotter (Sanplatec), and the anti-human-HSP27 mouse monoclonal antibody (StressGen, Victoria, B.C., Canada, Catalogue No. SPA-800). […]

Question: Which results are given for `COc1ccc2cc3[n+](cc2c1OC)CCc1cc2c(cc1-3)OCO2` [berberine hydrochloride]?
Answer: band of the molecular weight of approximately 27 kDa (colon cancer cell line COLO 205): faint in comparison with the control tests; band of the molecular weight of approximately 27 kDa (gastric cancer cell line KATO III): faint in comparison with the control tests; band of the molecular weight of approximately 27 kDa (lung cancer cell line H69): no band of the molecular weight of approximately 27 kDa was detected; band of the molecular weight of approximately 27 kDa (neuroblastoma cell line SK-N-MC): no band of the molecular weight of approximately 27 kDa was detected; band of the molecular weight of approximately 27 kDa (prostate cancer cell line DU145): no band of the molecular weight of approximately 27 kDa was detected; band of the molecular weight of approximately 27 kDa (uterine cancer cell line HeLa S3): no band of the molecular weight of approximately 27 kDa was detected
